ChEMBL document CHEMBL1146193, “Increased genome instability in Escherichia coli lon mutants: relation to emergence of multiple-antibiotic-resistant (Mar) mutants caused by insertion sequence elements and large tandem genomic amplifications” (2007)
≈ marks a conversion by molar mass, not a printed value.

Key:
Assay type in all cases: functional
Escherichia coli [1] = assay: Antimicrobial activity against Escherichia coli M064 mutant with AG100 lon1::IS186 acrR::IS genotype
Escherichia coli [2] = assay: Antimicrobial activity against Escherichia coli M093 mutant with AG100 lon3::IS186 acrR::IS1 genotype
Escherichia coli [3] = assay: Antimicrobial activity against Escherichia coli M124 mutant with AG100 lon4::IS186 acrR::IS genotype
Escherichia coli [4] = assay: Antimicrobial activity against Escherichia coli M104 mutant with AG100 dupIS3 genotype
Escherichia coli [5] = assay: Antimicrobial activity against Escherichia coli AG112 mutant with marR genotype after 250 generations in 5 ug/ml presence of tetracycline
Escherichia coli [6] = assay: Antimicrobial activity against Escherichia coli AG112 mutant with AG100 marR genotype
Escherichia coli [7] = assay: Antimicrobial activity against Escherichia coli AG112 mutant with marR genotype after 125 generations in absence of tetracycline
Escherichia coli [8] = assay: Antimicrobial activity against Escherichia coli M043 mutant with AG100 lon4::IS186 marR::IS2 genotype
Escherichia coli [9] = assay: Antimicrobial activity against Escherichia coli M114 mutant with AG100 lon4::IS186 marR::IS2 genotype
Escherichia coli [10] = assay: Antimicrobial activity against Escherichia coli M044 mutant with AG100 lon4::IS186 marR::IS genotype
Escherichia coli [11] = assay: Antimicrobial activity against Escherichia coli M084 mutant AG100 lon4::IS186 genotype
Escherichia coli [12] = assay: Antimicrobial activity against Escherichia coli M103 mutant with AG100 lon3::IS186 acrR-acrAB genotype
Escherichia coli [13] = assay: Antimicrobial activity against Escherichia coli M013 mutant with AG100 delta-(lon-hupB-ppiD) dupIS5 genotype
Escherichia coli [14] = assay: Antimicrobial activity against Escherichia coli M073 mutant with AG100 lon2::IS186 acrR::IS5 genotype
Escherichia coli [15] = assay: Antimicrobial activity against Escherichia coli M074 mutant with AG100 lon2::IS186 acrR::IS genotype
Escherichia coli [16] = assay: Antimicrobial activity against Escherichia coli M083 mutant with AG100 lon4::IS186 acrR::IS1 genotype
Escherichia coli [17] = assay: Antimicrobial activity against Escherichia coli AG100 mutant with argE3 thi-3 rpsL xyl mtl supE44 genotype

Compound | MIC (Escherichia coli [1]) [µg/mL] | MIC (Escherichia coli [2]) [µg/mL] | MIC (Escherichia coli [3]) [µg/mL] | MIC (Escherichia coli [4]) [µg/mL] | MIC (Escherichia coli [5]) [µg/mL] | MIC (Escherichia coli [6]) [µg/mL] | MIC (Escherichia coli [7]) [µg/mL] | MIC (Escherichia coli [8]) [µg/mL] | MIC (Escherichia coli [9]) [µg/mL] | MIC (Escherichia coli [10]) [µg/mL] | MIC (Escherichia coli [11]) [µg/mL] | MIC (Escherichia coli [12]) [µg/mL] | MIC (Escherichia coli [13]) [µg/mL] | MIC (Escherichia coli [14]) [µg/mL] | MIC (Escherichia coli [15]) [µg/mL] | MIC (Escherichia coli [16]) [µg/mL] | MIC (Escherichia coli [17]) [µg/mL]
CC1(C)S[C@@H]2[C@H](NC(=O)[C@H](N)c3ccccc3)C(=O)N2[C@H]1C(=O)O [AMPICILLIN] | 6 (≈ 17.2 µM) | 6 (≈ 17.2 µM) | 3 (≈ 8.59 µM) | 3 (≈ 8.59 µM) | 32 | 6 (≈ 17.2 µM) | 12 (≈ 34.3 µM) | 6 (≈ 17.2 µM) | 8 (≈ 22.9 µM) | 6 (≈ 17.2 µM) | 3 (≈ 8.59 µM) | 4 (≈ 11.4 µM) | 3 (≈ 8.59 µM) | 6 (≈ 17.2 µM) | 6 (≈ 17.2 µM) | 4 (≈ 11.4 µM) | –
O=C(N[C@H](CO)[C@H](O)c1ccc([N+](=O)[O-])cc1)C(Cl)Cl [CHLORAMPHENICOL] | 32 (≈ 99 µM) | 32 (≈ 99 µM) | 24 (≈ 74.3 µM) | 32 (≈ 99 µM) | 256 | 24 (≈ 74.3 µM) | 24 (≈ 74.3 µM) | 64 (≈ 198 µM) | 64 (≈ 198 µM) | 32 (≈ 99 µM) | – | 24 (≈ 74.3 µM) | – | 32 (≈ 99 µM) | 48 (≈ 149 µM) | 32 (≈ 99 µM) | 4 (≈ 12.4 µM)
CCn1cc(C(=O)O)c(=O)c2ccc(C)nc21 [NALIDIXIC ACID] | 12 (≈ 51.7 µM) | 8 (≈ 34.4 µM) | 8 (≈ 34.4 µM) | 8 (≈ 34.4 µM) | 192 | 12 (≈ 51.7 µM) | 24 (≈ 103 µM) | 8 (≈ 34.4 µM) | 8 (≈ 34.4 µM) | 12 (≈ 51.7 µM) | 6 (≈ 25.8 µM) | 6 (≈ 25.8 µM) | – | 8 (≈ 34.4 µM) | 8 (≈ 34.4 µM) | 8 (≈ 34.4 µM) | 6 (≈ 25.8 µM)
CCn1cc(C(=O)O)c(=O)c2cc(F)c(N3CCNCC3)cc21 [NORFLOXACIN] | 0.19 (≈ 0.595 µM) | 0.25 (≈ 0.783 µM) | 0.25 (≈ 0.783 µM) | 0.25 (≈ 0.783 µM) | 2 | 0.38 (≈ 1.19 µM) | 0.75 (≈ 2.35 µM) | 0.38 (≈ 1.19 µM) | 0.38 (≈ 1.19 µM) | 0.25 (≈ 0.783 µM) | 0.13 (≈ 0.407 µM) | 0.25 (≈ 0.783 µM) | 0.13 (≈ 0.407 µM) | 0.19 (≈ 0.595 µM) | 0.19 (≈ 0.595 µM) | 0.25 (≈ 0.783 µM) | 0.02 (≈ 0.0626 µM)
CO[C@H]1/C=C/O[C@@]2(C)Oc3c(C)c(O)c4c(O)c(c(/C=N/N5CCN(C)CC5)c(O)c4c3C2=O)NC(=O)/C(C)=C\C=C\[C@H](C)[C@H](O)[C@@H](C)[C@@H](O)[C@@H](C)[C@H](OC(C)=O)[C@@H]1C [RIFAMPIN] | 24 (≈ 29.2 µM) | 24 (≈ 29.2 µM) | 16 (≈ 19.4 µM) | 16 (≈ 19.4 µM) | – | – | – | 24 (≈ 29.2 µM) | 24 (≈ 29.2 µM) | 24 (≈ 29.2 µM) | 16 (≈ 19.4 µM) | 24 (≈ 29.2 µM) | 16 (≈ 19.4 µM) | 24 (≈ 29.2 µM) | 24 (≈ 29.2 µM) | 16 (≈ 19.4 µM) | 16 (≈ 19.4 µM)
CN(C)[C@@H]1C(O)=C(C(N)=O)C(=O)[C@@]2(O)C(O)=C3C(=O)c4c(O)cccc4[C@@](C)(O)[C@H]3C[C@@H]12 [TETRACYCLINE] | 8 (≈ 18 µM) | 4 (≈ 9 µM) | 6 (≈ 13.5 µM) | 6 (≈ 13.5 µM) | 128 | 8 (≈ 18 µM) | 24 (≈ 54 µM) | 16 (≈ 36 µM) | 12 (≈ 27 µM) | 4 (≈ 9 µM) | 4 (≈ 9 µM) | 6 (≈ 13.5 µM) | 6 (≈ 13.5 µM) | 12 (≈ 27 µM) | 4 (≈ 9 µM) | 4 (≈ 9 µM) | 2 (≈ 4.5 µM)
